Measurements as given in US4160829A, “Antibacterial 1,2,4-oxadiazolylacetamido cephalosporins” (Gist-Brocades N.V., priority 1972, dated 1979).
In brackets after ≈: the same amount, converted by molar mass. Like-named read-outs stand apart in the source and are kept apart here.

Tests used:
Prot.mirab. L 93 [1] = test: agar serial dilution test; assay type: cell-based, Proteus mirabilis; settings: Proteus mirabilis, 24 h, read-out: minimal inhibitory concentration (MIC), agar serial dilution, 24 hours, 37° C.
Bruc.melit. A 488 [2] = test: microbe, parasite or virus in culture; assay type: cell-based; settings: Brucella melitensis, 24 h, read-out: minimal inhibitory concentration (MIC)
[3] = test system: Pseud.aerug. Wyeth A 1058; test: agar serial dilution test; assay type: cell-based; settings: 24 h, read-out: minimal inhibitory concentration (MIC)
Staph.aureus A 2000 = test: agar serial dilution test; assay type: cell-based, Staphylococcus aureus; settings: Staphylococcus aureus, A2000, 24 h, read-out: minimal inhibitory concentration (MIC)
Salm.typh. R 127 = test: micro serial dilution test; assay type: cell-based; settings: micro serial dilution (in brackets), about 18 hours, 30° C. or 37° C.; read-out: minimal inhibitory concentration (MIC)
Source text: (§1) Two drops of a stock solution of the test compound (antibiotic) in a known concentration were brought into the first hole of a test plate with 9 numbered holes with a sterile Pasteur pipette. After rinsing this pipette three times with a physiological NaCl-solution, two drops of a stock solution of the test organism in a culture medium were brought in all the holes except for hole 8. In the first hole, the solution of the tested compound had been half diluted, then by stirring the liquid in the first hole and adding two drops of this mixture to the second hole and so on until hole 8, dilutions of the test compound solution were obtained in geometrical progression. The hole 9 contained no antibiotic and served for checking the growth of the testogranism in a blank medium. The test plate was incubated at 30° C. or 37° C. for about 18 hours.

Strep.haem. A 266 [4] = test: agar serial dilution test; assay type: cell-based, Streptococcus haemolyticus; settings: Streptococcus, 24 h, read-out: minimal inhibitory concentration (MIC)
Haem.infl. A 1030 = test: micro serial dilution test; assay type: cell-based; settings: 18 h, read-out: minimal inhibitory concentration (MIC)
Shig.equir. T 3 [5] = test: agar serial dilution test; assay type: cell-based; settings: 24 h, 37° C., read-out: minimal inhibitory concentration (MIC)
Strep. faec. L 80 [6] = test: agar serial dilution test; assay type: cell-based, Streptococcus faecalis; settings: Enterococcus faecalis, 24 h, read-out: minimal inhibitory concentration (MIC)
Past.multo. A 723 [7] = test: agar serial dilution test; assay type: cell-based, Pasteurella multocida; settings: Pasteurella multocida, 24 h, read-out: minimal inhibitory concentration (MIC)
Kleb.pneum. A 809 [8] = test: agar serial dilution test; assay type: cell-based, Klebsiella pneumoniae; settings: Klebsiella pneumoniae, 24 h, read-out: minimal inhibitory concentration (MIC)
Pseud.aerug. 2396 [9] = test: agar serial dilution test; assay type: cell-based; settings: 24 h, read-out: minimal inhibitory concentration (MIC)
Pseud.aerug. H 10 [10] = test: agar serial dilution test; assay type: cell-based; settings: 24 h, read-out: minimal inhibitory concentration (MIC)
Prot.rettg. A 821 [11] = test: agar serial dilution test; assay type: cell-based, Proteus rettgeri; settings: Providencia rettgeri, 24 h, read-out: minimal inhibitory concentration (MIC)
Salm.dubl. P 43 [12] = test: agar serial dilution test; assay type: cell-based, Salmonella dublin; settings: Salmonella enterica, 24 h, read-out: minimal inhibitory concentration (MIC)
Staph.aureus A 355 [13] = test: agar serial dilution test; settings: Staphylococcus aureus, A355, 24 h, read-out: minimal inhibitory concentration (MIC)
Esch.coli U 20 [14] = test: agar serial dilution test; assay type: cell-based, Escherichia coli; settings: Escherichia coli, U20, 24 h, read-out: minimal inhibitory concentration (MIC), agar serial dilution, 24 hours, 37° C.
Prot.morg. 2241 [15] = test: agar serial dilution test; assay type: cell-based; settings: 24 h, read-out: minimal inhibitory concentration (MIC)
Dipl.pneum. L 54 [16] = test: agar serial dilution test; assay type: cell-based, Diplococcus pneumoniae; settings: Streptococcus pneumoniae, 24 h, read-out: minimal inhibitory concentration (MIC)
Bac.Subt.ATCC 6633 [17] = test: agar serial dilution test; assay type: cell-based, Bacillus subtilis; settings: Bacillus subtilis, ATCC6633, 24 h, read-out: minimal inhibitory concentration (MIC)
Prot.mirab. H 3 [18] = test: agar serial dilution test; assay type: cell-based, Proteus mirabilis; settings: Proteus mirabilis, 24 h, read-out: minimal inhibitory concentration (MIC), agar serial dilution, 24 hours, 37° C.
Staph.aureus A 321 [19] = test: agar serial dilution test; assay type: cell-based, Staphylococcus aureus; settings: Staphylococcus aureus, A321, 24 h, read-out: minimal inhibitory concentration (MIC)
Strep. faec. L 80 [20] = test: micro serial dilution test; assay type: cell-based, Streptococcus faecalis; settings: Enterococcus faecalis, read-out: minimal inhibitory concentration (MIC)
[21] = test system: Pseud.aerug. Wyeth A 1058; test: micro serial dilution test; assay type: cell-based; settings: read-out: minimal inhibitory concentration (MIC)
Pseud.aerug. 2396 [22] = test: micro serial dilution test; assay type: cell-based; settings: read-out: minimal inhibitory concentration (MIC)
Bruc.melit. A 488 [23] = test: microbe, parasite or virus in culture; assay type: cell-based; settings: Brucella melitensis, 18 h, read-out: minimal inhibitory concentration (MIC)
Shig.equir. T 3 [24] = test: micro serial dilution test; assay type: cell-based; settings: micro serial dilution (in brackets), about 18 hours, 30° C. or 37° C.; read-out: minimal inhibitory concentration (MIC)
Source text: as §1

Prot.morg. 2241 [25] = test: micro serial dilution test; assay type: cell-based; settings: read-out: minimal inhibitory concentration (MIC)
Prot.rettg. A 821 [26] = test: micro serial dilution test; assay type: cell-based, Proteus rettgeri; settings: Providencia rettgeri, read-out: minimal inhibitory concentration (MIC)
Staph.aureus A 321 [27] = test: micro serial dilution test; assay type: cell-based; settings: Staphylococcus aureus, read-out: minimal inhibitory concentration (MIC)
Bac.Subt.ATCC 6633 [28] = test: micro serial dilution test; assay type: cell-based; settings: Bacillus subtilis, read-out: minimal inhibitory concentration (MIC)
Strep.haem. A 266 [29] = test: micro serial dilution test; assay type: cell-based, Streptococcus haemolyticus; settings: Streptococcus, read-out: minimal inhibitory concentration (MIC)
Past.multo. A 723 [30] = test: micro serial dilution test; assay type: cell-based; settings: Pasteurella multocida, read-out: minimal inhibitory concentration (MIC)
Prot.mirab. L 93 [31] = test: micro serial dilution test; assay type: cell-based; settings: Proteus mirabilis, read-out: minimal inhibitory concentration (MIC)
Dipl.pneum. L 54 [32] = test: micro serial dilution test; assay type: cell-based, Diplococcus pneumoniae; settings: Streptococcus pneumoniae, read-out: minimal inhibitory concentration (MIC)
Kleb.pneum. A 809 [33] = test: micro serial dilution test; assay type: cell-based; settings: Klebsiella pneumoniae, read-out: minimal inhibitory concentration (MIC)
Staph.aureus A 355 [34] = test: micro serial dilution test; assay type: cell-based, Staphylococcus aureus; settings: Staphylococcus aureus, read-out: minimal inhibitory concentration (MIC)
Prot.mirab. H 3 [35] = test: micro serial dilution test; assay type: cell-based; settings: Proteus mirabilis, read-out: minimal inhibitory concentration (MIC)
Salm.dubl. P 43 [36] = test: micro serial dilution test; assay type: cell-based, Salmonella dublin; settings: Salmonella enterica, read-out: minimal inhibitory concentration (MIC)
Pseud.aerug. H 10 [37] = test: micro serial dilution test; assay type: cell-based; settings: read-out: minimal inhibitory concentration (MIC)
Esch.coli U 20 [38] = test: micro serial dilution test; assay type: cell-based; settings: Escherichia coli, read-out: minimal inhibitory concentration (MIC)
[39] = micro serial dilution (in brackets), about 18 hours, 30° C. or 37° C.

CC1=C(C(=O)O)N2C(=O)[C@@H](NC(=O)[C@H](N)c3ccccc3)[C@H]2SC1 [Cefalexin, reference compound]
MIC (Prot.mirab. L 93 [1]): 12.5 µg/mL (≈ 36 µM)
MIC (Bruc.melit. A 488 [2]): 6 µg/mL (≈ 17.3 µM)
MIC [3]: > 100 µg/mL
MIC (Staph.aureus A 2000): 12.5 µg/mL (≈ 36 µM)
MIC (Salm.typh. R 127): 6 µg/mL (≈ 17.3 µM)
MIC (Strep.haem. A 266 [4]): 0.25 µg/mL (≈ 0.72 µM)
MIC (Haem.infl. A 1030): 125 µg/mL (≈ 360 µM)
MIC (Shig.equir. T 3 [5]): 1.5 µg/mL (≈ 4.32 µM)
MIC (Strep. faec. L 80 [6]): 100 µg/mL (≈ 288 µM)
MIC (Past.multo. A 723 [7]): 3 µg/mL (≈ 8.64 µM)
MIC (Kleb.pneum. A 809 [8]): 3 µg/mL (≈ 8.64 µM)
MIC (Pseud.aerug. 2396 [9]): > 100 µg/mL
MIC (Pseud.aerug. H 10 [10]): > 100 µg/mL
MIC (Prot.rettg. A 821 [11]): 12.5 µg/mL (≈ 36 µM)
MIC (Salm.dubl. P 43 [12]): 6 µg/mL (≈ 17.3 µM)
MIC (Staph.aureus A 355 [13]): 12.5 µg/mL (≈ 36 µM)
MIC (Esch.coli U 20 [14]): 12.5 µg/mL (≈ 36 µM)
MIC (Prot.morg. 2241 [15]): > 100 µg/mL
MIC (Dipl.pneum. L 54 [16]): 3 µg/mL (≈ 8.64 µM)
MIC (Bac.Subt.ATCC 6633 [17]): 0.5 µg/mL (≈ 1.44 µM)
MIC (Prot.mirab. H 3 [18]): 25 µg/mL (≈ 72 µM)
MIC (Staph.aureus A 321 [19]): 1.5 µg/mL (≈ 4.32 µM)

CC1(C)S[C@@H]2[C@H](NC(=O)Cc3ccccc3)C(=O)N2[C@H]1C(=O)O [Penicillin G]
MIC (Strep. faec. L 80 [20]; [39]): 4 µg/mL (≈ 12 µM)
MIC [21, 39]: 100 µg/mL (≈ 299 µM)
MIC (Pseud.aerug. 2396 [22]; [39]): > 100 µg/mL
MIC (Bruc.melit. A 488 [23]): 0.25 µg/mL (≈ 0.748 µM)
MIC (Shig.equir. T 3 [24]): 0.25 µg/mL (≈ 0.748 µM)
MIC (Haem.infl. A 1030; [39]): 0.5 µg/mL (≈ 1.5 µM)
MIC (Prot.morg. 2241 [25]; [39]): > 100 µg/mL
MIC (Prot.rettg. A 821 [26]; [39]): 25 µg/mL (≈ 74.8 µM)
MIC (Staph.aureus A 321 [27]; A321, micro serial dilution (in brackets), about 18 hours, 30° C. or 37° C.): 0.03 µg/mL (≈ 0.0897 µM)
MIC (Bac.Subt.ATCC 6633 [28]; ATCC6633, micro serial dilution (in brackets), about 18 hours, 30° C. or 37° C.): 0.006 µg/mL (≈ 0.0179 µM)
MIC (Strep.haem. A 266 [29]; [39]): 0.013 µg/mL (≈ 0.0389 µM)
MIC (Past.multo. A 723 [30]; [39]): 0.2 µg/mL (≈ 0.598 µM)
MIC (Prot.mirab. L 93 [31]; [39]): 0.5 µg/mL (≈ 1.5 µM)
MIC (Dipl.pneum. L 54 [32]; [39]): 0.13 µg/mL (≈ 0.389 µM)
MIC (Kleb.pneum. A 809 [33]; [39]): 100 µg/mL (≈ 299 µM)
MIC (Staph.aureus A 355 [34]; A355, micro serial dilution (in brackets), about 18 hours, 30° C. or 37° C., penicillinase-producing strain): 10 µg/mL (≈ 29.9 µM)
MIC (Prot.mirab. H 3 [35]; [39]): 7.5 µg/mL (≈ 22.4 µM)
MIC (Salm.dubl. P 43 [36]; [39]): 5 µg/mL (≈ 15 µM)
MIC (Pseud.aerug. H 10 [37]; [39]): > 100 µg/mL
MIC (Esch.coli U 20 [38]; U20, micro serial dilution (in brackets), about 18 hours, 30° C. or 37° C.): 40 µg/mL (≈ 120 µM)

CC1(C)S[C@@H]2[C@H](NC(=O)COc3ccccc3)C(=O)N2[C@H]1C(=O)O [Penicillin V]
MIC (Strep. faec. L 80 [20]; 18 h): 5 µg/mL (≈ 14.3 µM)
MIC ([21]; 18 h): > 100 µg/mL
MIC (Pseud.aerug. 2396 [22]; 18 h): 100 µg/mL (≈ 285 µM)
MIC (Bruc.melit. A 488 [23]): 1 µg/mL (≈ 2.85 µM)
MIC (Shig.equir. T 3 [24]): 5 µg/mL (≈ 14.3 µM)
MIC (Haem.infl. A 1030): 1 µg/mL (≈ 2.85 µM)
MIC (Prot.morg. 2241 [25]; 18 h): > 100 µg/mL
MIC (Prot.rettg. A 821 [26]; 18 h): 100 µg/mL (≈ 285 µM)
MIC (Staph.aureus A 321 [27]; A321, 18 h): 0.045 µg/mL (≈ 0.128 µM)
MIC (Bac.Subt.ATCC 6633 [28]; ATCC6633, 18 h): 0.002 µg/mL (≈ 0.00571 µM)
MIC (Strep.haem. A 266 [29]; 18 h): 0.2 µg/mL (≈ 0.571 µM)
MIC (Past.multo. A 723 [30]; 18 h): 0.75 µg/mL (≈ 2.14 µM)
MIC (Prot.mirab. L 93 [31]; 18 h): 10 µg/mL (≈ 28.5 µM)
MIC (Dipl.pneum. L 54 [32]; 18 h): 1 µg/mL (≈ 2.85 µM)
MIC (Kleb.pneum. A 809 [33]; 18 h): 100 µg/mL (≈ 285 µM)
MIC (Staph.aureus A 355 [34]; A355, 18 h): 25 µg/mL (≈ 71.3 µM)
MIC (Prot.mirab. H 3 [35]; 18 h): 100 µg/mL (≈ 285 µM)
MIC (Salm.dubl. P 43 [36]; 18 h): > 100 µg/mL
MIC (Pseud.aerug. H 10 [37]; 18 h): > 100 µg/mL
MIC (Esch.coli U 20 [38]; U20, 18 h): 100 µg/mL (≈ 285 µM)
